Read-outs that look alike come from different tables or passages of the source.
Tests used:
TLR7 = target: T1, TLR7 (Homo sapiens, UniProt Q9NYK1); test: Human PBMC cell-based assay, TLR7 agonist stimulation; settings: human PBMCs, read-out: TLR-7 EC50
T1 construct: lymphocytes, monocytes and dendritic cells that express TLR7, TLR8 and TLR9; endogenous in cells; host or cells: cryopreserved human PBMCs from healthy donors
T1 sequence (Q9NYK1 27-1049): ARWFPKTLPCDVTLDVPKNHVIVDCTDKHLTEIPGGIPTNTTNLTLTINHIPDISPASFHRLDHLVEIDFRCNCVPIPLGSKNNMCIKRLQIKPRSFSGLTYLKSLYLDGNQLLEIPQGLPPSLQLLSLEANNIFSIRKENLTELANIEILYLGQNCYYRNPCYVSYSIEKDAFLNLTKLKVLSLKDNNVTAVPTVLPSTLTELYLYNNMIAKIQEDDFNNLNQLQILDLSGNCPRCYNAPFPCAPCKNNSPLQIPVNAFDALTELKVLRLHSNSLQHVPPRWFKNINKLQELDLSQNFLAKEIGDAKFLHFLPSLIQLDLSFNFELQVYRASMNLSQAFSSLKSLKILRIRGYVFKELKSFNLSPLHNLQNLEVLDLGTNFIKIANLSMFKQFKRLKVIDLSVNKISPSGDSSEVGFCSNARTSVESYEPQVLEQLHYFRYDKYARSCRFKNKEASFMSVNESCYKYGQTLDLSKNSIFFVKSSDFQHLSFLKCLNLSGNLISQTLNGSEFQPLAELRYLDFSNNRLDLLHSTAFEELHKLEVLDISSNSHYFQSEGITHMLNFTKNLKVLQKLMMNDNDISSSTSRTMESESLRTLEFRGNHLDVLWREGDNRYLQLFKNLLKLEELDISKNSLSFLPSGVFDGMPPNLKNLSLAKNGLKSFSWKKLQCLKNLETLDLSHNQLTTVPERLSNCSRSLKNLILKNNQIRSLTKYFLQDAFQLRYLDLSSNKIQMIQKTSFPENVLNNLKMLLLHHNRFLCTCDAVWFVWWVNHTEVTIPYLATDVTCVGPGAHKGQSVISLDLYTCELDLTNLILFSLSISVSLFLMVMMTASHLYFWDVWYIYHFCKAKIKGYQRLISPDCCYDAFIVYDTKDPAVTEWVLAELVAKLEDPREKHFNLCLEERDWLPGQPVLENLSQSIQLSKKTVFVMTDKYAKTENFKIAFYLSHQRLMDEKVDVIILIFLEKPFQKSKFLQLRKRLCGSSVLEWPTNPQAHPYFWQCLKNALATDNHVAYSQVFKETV
Text: (§1) Human Peripheral Blood Mononuclear Cell (PBMC) Cell-Based Assay
(§2) Human peripheral blood mononuclear cells (PBMCs) consist of lymphocytes, monocytes and dendritic cells that express TLR7, TLR8 and TLR9. These cells respond to TLR7, TLR8 and TLR9 ligand stimulation and produce cytokines and chemokines in vitro and in vivo. Human PBMCs are therefore suitable to be used in a cell-based assay to assess the in vitro potency of a TLR 7, 8, and/or 9 antagonist. The result is expected to be more translatable to the pharmacodynamics response in vivo than cell line-based assays.
(§3) Cryopreserved human PBMCs from healthy donors were thawed and resuspended in RPMI-1640 media with L-glutamine (Corning) supplemented with 10% Fetal Bovine Serum (Hyclone) and 1× Penicillin-Streptomycin (Corning). After counting, the cell density was adjusted to 2 million cells/ml and incubated for 1 hour at 37° C., 5% CO2 for recovery. Following the recovery, the cells were plated by adding 50p per well (100,000 cells) to 384-well cell culture plates (Greiner) containing 250 nl of test antagonists in 100% DMSO per well, in a 10 points dose response in quadruplicates. PBMCs were incubated in the presence of test antagonists for one hour at 37° C., 5% CO2 before being stimulated with a TLR7 or TLR9 agonist. GS-986 (Gilead Sciences) was used as the TLR7 agonist at a final concentration of 400 nM. ODN-2216 (InvivoGen) was used as the TLR9 agonist at a final concentration of 3μM. PBMCs were incubated in the presence of the test antagonist and the TLR7 (or TLR9) agonist for an additional 6 hours at 37° C., 5% CO2. At the end of the incubation, the cell culture plates were centrifuged at 500 g for 5 min, and the cell culture supernatant was collected. The level of cytokines (IL-6 and IFNα) in the supernatant was measured by electrochemiluminescence immunoassays (Mesoscale Discovery) following manufacturer's recommended protocols. The level of cytokine measured was plotted against the test antagonist concentration and fitted to a sigmoidal function to determine the EC50, which are shown below in Table 2.

TLR9 = target: T2, TLR9 (Homo sapiens, UniProt Q9NR96); test: Human PBMC cell-based assay, TLR9 agonist stimulation; settings: human PBMCs, read-out: TLR-9 EC50
T2 construct: lymphocytes, monocytes and dendritic cells that express TLR7, TLR8 and TLR9; endogenous in cells; host or cells: cryopreserved human PBMCs from healthy donors
T2 sequence (Q9NR96 26-1032): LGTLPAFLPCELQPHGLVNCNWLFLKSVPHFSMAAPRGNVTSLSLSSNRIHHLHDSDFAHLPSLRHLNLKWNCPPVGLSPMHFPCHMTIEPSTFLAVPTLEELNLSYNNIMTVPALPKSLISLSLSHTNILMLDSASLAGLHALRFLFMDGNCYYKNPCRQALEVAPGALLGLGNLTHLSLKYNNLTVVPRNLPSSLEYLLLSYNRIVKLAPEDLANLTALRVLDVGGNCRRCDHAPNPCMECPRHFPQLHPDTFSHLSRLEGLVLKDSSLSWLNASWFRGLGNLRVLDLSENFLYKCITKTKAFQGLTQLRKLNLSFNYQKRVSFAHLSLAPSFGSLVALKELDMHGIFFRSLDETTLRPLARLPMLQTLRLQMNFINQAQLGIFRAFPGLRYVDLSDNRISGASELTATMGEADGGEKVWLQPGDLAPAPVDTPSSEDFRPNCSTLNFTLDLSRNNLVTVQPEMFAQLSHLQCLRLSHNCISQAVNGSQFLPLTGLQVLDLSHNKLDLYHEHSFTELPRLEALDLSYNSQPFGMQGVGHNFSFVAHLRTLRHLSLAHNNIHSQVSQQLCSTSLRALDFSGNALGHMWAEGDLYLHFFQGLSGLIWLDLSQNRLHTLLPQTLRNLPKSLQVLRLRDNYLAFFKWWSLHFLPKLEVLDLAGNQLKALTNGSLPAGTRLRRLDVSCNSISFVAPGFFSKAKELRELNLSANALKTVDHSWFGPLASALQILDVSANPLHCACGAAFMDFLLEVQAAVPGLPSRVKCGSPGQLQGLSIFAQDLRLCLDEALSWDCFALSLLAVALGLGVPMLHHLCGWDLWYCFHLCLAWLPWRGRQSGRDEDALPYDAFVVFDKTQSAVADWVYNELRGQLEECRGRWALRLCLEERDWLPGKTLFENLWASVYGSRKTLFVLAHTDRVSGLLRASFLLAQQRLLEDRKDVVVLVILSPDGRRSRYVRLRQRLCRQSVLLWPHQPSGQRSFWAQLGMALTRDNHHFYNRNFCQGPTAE
Text: as §1, §2, §3

[1] = TLR7 agonist GS-986 400 nM, 6 hours, cytokines (IL-6 and IFNα) in supernatant, Table 2
[2] = TLR9 agonist ODN-2216 3 μM, 6 hours, cytokines (IL-6 and IFNα) in supernatant, Table 2
[3] = same protocol as Example A, Table 3 comparison

Work on `Cc1cc(-c2ccc3c(C)c(-c4cnc(N5CCNCC5)nc4)[nH]c3c2)cc(C)n1` [Example 1, 6-(2,6-dimethylpyridin-4-yl)-3-methyl-2-(2-(piperazin-1-yl)pyrimidin-5-yl)-1H-indole] yielded an EC50 (TLR7; [1]) of 7.3 nM and an EC50 (TLR9; [2]) of 34.6 nM.

`Cc1cc(-c2ccc3c(C)c(-c4ccc(N5CCNCC5)nc4)[nH]c3c2)cc(C)n1` [Example 2, 6-(2,6-dimethylpyridin-4-yl)-3-methyl-2-(6-(piperazin-1-yl)pyridin-3-yl)-1H-indole] was tested, and the EC50 (TLR7; [1]) was 6.8 nM and the EC50 (TLR9; [2]) was 33.2 nM.

`Cc1c(-c2ccc(N3CCNCC3)nc2)[nH]c2cc(-c3cc(C)c4ncnn4c3)ccc12` [Example 4] was tested, and the EC50 (TLR7; [1]) was 1.4 nM and the EC50 (TLR9; [2]) was 322 nM.

With `Cc1c(-c2ccc(N3CCNCC3)nc2)[nH]c2cc(-c3ccc(C#N)c4ncccc34)ccc12` [Example 7] the EC50 (TLR7; [1]) was 0.5 nM and the EC50 (TLR9; [2]) was 508 nM.

With `CCc1c(-c2ccc(N3CCNCC3)nc2)[nH]c2cc(-c3cc(C)c4ncnn4c3)ccc12` [Example 23] the EC50 (TLR7; [1]) was 0.5 nM and the EC50 (TLR9; [2]) was 305 nM.

`Cc1cc(-c2[nH]c3ccc(-c4ccc(N5CCNCC5)nc4)cc3c2C(C)C)cc(C)n1` [Example A, reference compound] gave an EC50 (TLR7; [3]) of 3.9 nM and an EC50 (TLR9; [3]) of 263 nM.

Molecule `Cc1cc(-c2[nH]c3ccc(-c4ccc(N5CCNCC5)nc4)cc3c2C(C)C)cn2ncnc12` [Example B, reference compound] has an EC50 (TLR7; [3]) of 0.5 nM and an EC50 (TLR9; [3]) of 716 nM.

— patent US20240059673A1, “SUBSTITUTED INDOLE COMPOUNDS” (Gilead Sciences, Inc., priority 2020, published 2024)
